Test results: patent US20250127162A1, “METHODS AND COMPOSITIONS FOR CONTROLLING PESTS IN RICE” (Globachem NV, priority 2022, published 2025)

Tests used:
Format in all cases: in vivo
Diabrotica speciosa = assay: Dry bean field trials, Diabrotica speciosa damage and yield (Example 4); conditions: 150 L water/ha, two applications 7 d apart; for % Damage, % UNCK: 28 DAB, Lambda-cyhalothrin 100 at 0.15 L/ha; for Yield: plot
Description: (§1) All applications were made with an EC formulation containing 650 g/L of pelargonic acid (e.g., 685 g/L of 95% purity pelargonic acid), an anionic emulsifier and a branched fatty acid ester solvent.
Diabrotica speciosa is a major pest in rice.
Dry Beans—Diabrotica speciosa

Rice = assay: Phytotoxicity PHYGEN on rice (Example 1, Trials 3-4, Thailand); parameters: key: % leaf necrosis compared with untreated plants
Description: “Low Phytotoxicity” of pelargonic acid, as used herein means that the toxic effect on plants is absent or at such a level so as not to adversely impact the growth and/or yield of the plant under a given set of test conditions, e.g., at a given concentration of pelargonic acid. Phytotoxic effects may be measured in a number of different ways, for example, according to the principals set out in OEPP/EPPO Bulletin (2014) 44 (3), 265-273 “PP 1/135 (4) Phytotoxicity assessment”. The phytotoxic effect on plants may be assessed visually as a function of the percentage of discoloration to the leaves and/or the appearance of necrosis. When the pelargonic acid compositions are applied to the foliage of the rice plants in accordance with the teachings herein, will typically result in a level of phytotoxicity of less than 20%, preferably less than 15%, more preferably less than 10% necrosis of the leaves in comparison to untreated plants. Preferred uses of the invention will typically result in phytotoxicity of 7% or less, whilst the most preferred uses will typically result in phytotoxicity of 5% or less. The above values are approximate as any purely visual assessment is likely to contain a degree of subjectivity.
as §1
Application A was made to the crops at the beginning of infestations; for these trials, Stage BBCH 59; Application B was made 14 days after Application A.
Trial 3 was conducted in Thailand using a water volume of 500 L/ha of water per application unless otherwise indicated. Insect Damage (DAMINS %), Insect Damage (Number) and Phytotoxicity were assessed at various treatment evaluation intervals.
Trial 4 was conducted in Thailand using a water volume of 500 L/ha of water per application unless otherwise indicated. Insect Damage (DAMINS %), Insect Damage (Number) and Phytotoxicity were assessed at various treatment evaluation intervals.

Oryzaphagus oryzae = assay: Rice field trials, number of Oryzaphagus oryzae (Example 2, Trials 1-2, Brazil); conditions: 3 days after application; for Number of Oryzaphagus oryzae, Average: average of 4 repetitions; for Number of Oryzaphagus oryzae, Repetition A / Number of Oryzaphagus oryzae, Repetition B / Number of Oryzaphagus oryzae, Repetition C / Number of Oryzaphagus oryzae, Repetition D: one application
Method: as §1
Trials 1-2 assessing the use of pelargonic acid for controlling Oryzaphagus oryzae in rice were conducted in Brazil. One application was made 5 days after the first flood irrigation. Assessments of the number of Oryzaphagus oryzae were made three (3) days after application for each of the four (4) repetitions at each dose rate.

[1] = Trial 1, dry bean, listed as PA 812.5 g/ha
[2] = Trial 1, dry bean, listed as PA 975 g/ha
[3] = Trial 1, dry bean, listed as PA 1137.5 g/ha
[4] = Trial 2, dry bean, listed as PA 812.5 g/ha
[5] = Trial 2, dry bean, listed as PA 975 g/ha
[6] = Trial 2, dry bean, listed as PA 1137.5 g/ha
[7] = Trial 1, listed as PA 487.5 g/ha
[8] = Trial 1, listed as PA 1300 g/ha
[9] = Trial 2, listed as PA 487.5 g/ha
[10] = Trial 2, listed as PA 1300 g/ha

CCCCCCCCC(=O)O [PA 650 g/ha, pelargonic acid]
0 b: Number of Oryzaphagus oryzae, Average (Oryzaphagus oryzae; [8]) | Number of Oryzaphagus oryzae, Average (Oryzaphagus oryzae; [10])
1: Number of Oryzaphagus oryzae, Repetition A (Oryzaphagus oryzae; Trial 1) | Number of Oryzaphagus oryzae, Repetition B (Oryzaphagus oryzae; [7]) | Number of Oryzaphagus oryzae, Repetition C (Oryzaphagus oryzae; [7]) | Number of Oryzaphagus oryzae, Repetition D (Oryzaphagus oryzae; Trial 1, listed as PA 975 g/ha) | Number of Oryzaphagus oryzae, Repetition A (Oryzaphagus oryzae; Trial 2) | Number of Oryzaphagus oryzae, Repetition D (Oryzaphagus oryzae; Trial 2) | Number of Oryzaphagus oryzae, Repetition B (Oryzaphagus oryzae; [9]) | Number of Oryzaphagus oryzae, Repetition A (Oryzaphagus oryzae; Trial 2, listed as PA 975 g/ha)
2.37ab Ton/ha: Yield (Diabrotica speciosa; [2])
0.25 b: Number of Oryzaphagus oryzae, Average (Oryzaphagus oryzae; Trial 1) | Number of Oryzaphagus oryzae, Average (Oryzaphagus oryzae; Trial 1, listed as PA 975 g/ha) | Number of Oryzaphagus oryzae, Average (Oryzaphagus oryzae; Trial 2, listed as PA 975 g/ha)
0.5 ab: Number of Oryzaphagus oryzae, Average (Oryzaphagus oryzae; Trial 2)
66.67%: E % (Oryzaphagus oryzae; [9])
39.58b % UNCK: % Damage, % UNCK (Diabrotica speciosa; Trial 2, dry bean)
87.8c % UNCK: % Damage, % UNCK (Diabrotica speciosa; [5])
82.01b % UNCK: % Damage, % UNCK (Diabrotica speciosa; [1])
2.09b Ton/ha: Yield (Diabrotica speciosa; Trial 1, dry bean)
2: Number of Oryzaphagus oryzae, Repetition C (Oryzaphagus oryzae; [9])
90%: E % (Oryzaphagus oryzae; Trial 1) | E % (Oryzaphagus oryzae; Trial 1, listed as PA 975 g/ha)
81.64c % UNCK: % Damage, % UNCK (Diabrotica speciosa; [4])
2.19bc Ton/ha: Yield (Diabrotica speciosa; [5])
77.78%: E % (Oryzaphagus oryzae; Trial 2)
27.81a % UNCK: % Damage, % UNCK (Diabrotica speciosa; Trial 1, dry bean)
88.90b % UNCK: % Damage, % UNCK (Diabrotica speciosa; [3])
2.29a Ton/ha: Yield (Diabrotica speciosa; [6])
2.34ab Ton/ha: Yield (Diabrotica speciosa; [3])
0.75 ab: Number of Oryzaphagus oryzae, Average (Oryzaphagus oryzae; [9])
0.5 b: Number of Oryzaphagus oryzae, Average (Oryzaphagus oryzae; [7])
2.15cd Ton/ha: Yield (Diabrotica speciosa; [4])
86.96b % UNCK: % Damage, % UNCK (Diabrotica speciosa; [2])
88.11c % UNCK: % Damage, % UNCK (Diabrotica speciosa; [6])
88.89%: E % (Oryzaphagus oryzae; Trial 2, listed as PA 975 g/ha)
2.11cd Ton/ha: Yield (Diabrotica speciosa; Trial 2, dry bean)
80%: E % (Oryzaphagus oryzae; [7])
0: Phytotoxicity (PHYGEN) (Rice; Trial 3, 0 DAA, water volume 200 L/ha) | Phytotoxicity (PHYGEN) (Rice; Trial 3, 0 DAA, water volume 500 L/ha) | Phytotoxicity (PHYGEN) (Rice; Trial 3, 0 DAB, water volume 200 L/ha) | Phytotoxicity (PHYGEN) (Rice; Trial 3, 0 DAB, water volume 500 L/ha) | Phytotoxicity (PHYGEN) (Rice; Trial 3, 7 DAA, water volume 200 L/ha) | Phytotoxicity (PHYGEN) (Rice; Trial 3, 7 DAA, water volume 500 L/ha) | Phytotoxicity (PHYGEN) (Rice; Trial 3, 7 DAB, water volume 200 L/ha) | Phytotoxicity (PHYGEN) (Rice; Trial 3, 7 DAB, water volume 500 L/ha) | Phytotoxicity (PHYGEN) (Rice; Trial 3, 10 DAA, water volume 200 L/ha) | Phytotoxicity (PHYGEN) (Rice; Trial 3, 10 DAA, water volume 500 L/ha) | Phytotoxicity (PHYGEN) (Rice; Trial 3, 10 DAB, water volume 200 L/ha) | Phytotoxicity (PHYGEN) (Rice; Trial 3, 10 DAB, water volume 500 L/ha) | Phytotoxicity (PHYGEN) (Rice; Trial 3, 14 DAB, water volume 200 L/ha) | Phytotoxicity (PHYGEN) (Rice; Trial 3, 14 DAB, water volume 500 L/ha) | Phytotoxicity (PHYGEN) (Rice; Trial 3, 21 DAB, water volume 200 L/ha) | Phytotoxicity (PHYGEN) (Rice; Trial 3, 21 DAB, water volume 500 L/ha) | Phytotoxicity (PHYGEN) (Rice; Trial 4, 0 DAA, water volume 200 L/ha) | Phytotoxicity (PHYGEN) (Rice; Trial 4, 0 DAA, water volume 500 L/ha) | Phytotoxicity (PHYGEN) (Rice; Trial 4, 0 DAB, water volume 200 L/ha) | Phytotoxicity (PHYGEN) (Rice; Trial 4, 0 DAB, water volume 500 L/ha) | Phytotoxicity (PHYGEN) (Rice; Trial 4, 7 DAA, water volume 200 L/ha) | Phytotoxicity (PHYGEN) (Rice; Trial 4, 7 DAA, water volume 500 L/ha) | Phytotoxicity (PHYGEN) (Rice; Trial 4, 7 DAB, water volume 200 L/ha) | Phytotoxicity (PHYGEN) (Rice; Trial 4, 7 DAB, water volume 500 L/ha) | Phytotoxicity (PHYGEN) (Rice; Trial 4, 10 DAA, water volume 200 L/ha) | Phytotoxicity (PHYGEN) (Rice; Trial 4, 10 DAA, water volume 500 L/ha) | Phytotoxicity (PHYGEN) (Rice; Trial 4, 10 DAB, water volume 200 L/ha) | Phytotoxicity (PHYGEN) (Rice; Trial 4, 10 DAB, water volume 500 L/ha) | Phytotoxicity (PHYGEN) (Rice; Trial 4, 14 DAB, water volume 200 L/ha) | Phytotoxicity (PHYGEN) (Rice; Trial 4, 14 DAB, water volume 500 L/ha) | Phytotoxicity (PHYGEN) (Rice; Trial 4, 21 DAB, water volume 200 L/ha) | Phytotoxicity (PHYGEN) (Rice; Trial 4, 21 DAB, water volume 500 L/ha) | Number of Oryzaphagus oryzae, Repetition B (Oryzaphagus oryzae; Trial 1) | Number of Oryzaphagus oryzae, Repetition C (Oryzaphagus oryzae; Trial 1) | Number of Oryzaphagus oryzae, Repetition D (Oryzaphagus oryzae; Trial 1) | Number of Oryzaphagus oryzae, Repetition A (Oryzaphagus oryzae; [7]) | Number of Oryzaphagus oryzae, Repetition D (Oryzaphagus oryzae; [7]) | Number of Oryzaphagus oryzae, Repetition A (Oryzaphagus oryzae; Trial 1, listed as PA 975 g/ha) | Number of Oryzaphagus oryzae, Repetition B (Oryzaphagus oryzae; Trial 1, listed as PA 975 g/ha) | Number of Oryzaphagus oryzae, Repetition C (Oryzaphagus oryzae; Trial 1, listed as PA 975 g/ha) | Number of Oryzaphagus oryzae, Repetition A (Oryzaphagus oryzae; [8]) | Number of Oryzaphagus oryzae, Repetition B (Oryzaphagus oryzae; [8]) | Number of Oryzaphagus oryzae, Repetition C (Oryzaphagus oryzae; [8]) | Number of Oryzaphagus oryzae, Repetition D (Oryzaphagus oryzae; [8]) | Number of Oryzaphagus oryzae, Repetition B (Oryzaphagus oryzae; Trial 2) | Number of Oryzaphagus oryzae, Repetition C (Oryzaphagus oryzae; Trial 2) | Number of Oryzaphagus oryzae, Repetition A (Oryzaphagus oryzae; [9]) | Number of Oryzaphagus oryzae, Repetition D (Oryzaphagus oryzae; [9]) | Number of Oryzaphagus oryzae, Repetition B (Oryzaphagus oryzae; Trial 2, listed as PA 975 g/ha) | Number of Oryzaphagus oryzae, Repetition C (Oryzaphagus oryzae; Trial 2, listed as PA 975 g/ha) | Number of Oryzaphagus oryzae, Repetition D (Oryzaphagus oryzae; Trial 2, listed as PA 975 g/ha) | Number of Oryzaphagus oryzae, Repetition A (Oryzaphagus oryzae; [10]) | Number of Oryzaphagus oryzae, Repetition B (Oryzaphagus oryzae; [10]) | Number of Oryzaphagus oryzae, Repetition C (Oryzaphagus oryzae; [10]) | Number of Oryzaphagus oryzae, Repetition D (Oryzaphagus oryzae; [10])
2.28ab Ton/ha: Yield (Diabrotica speciosa; [1])
100%: E % (Oryzaphagus oryzae; [8]) | E % (Oryzaphagus oryzae; [10])
